Assay results reported in ChEMBL document CHEMBL6127153, “Hybrids of Membrane-Translocating Antimicrobial Peptides Show Enhanced Activity through Membrane Permeabilization” (ACS Med Chem Lett, 2024).
Converted amounts (≈) assume the structure as drawn. The source made the active and inactive calls. The rule behind the calls is not given here.

Tests used:
Escherichia coli = assay: Antibacterial activity against Escherichia coli Top10 assessed as inhibition of bacterial growth at 100 uM incubated for 3 hrs by radial diffusion assay; assay type: functional, organism-based
HEK293 = assay: Cytotoxicity against HEK293 cells assessed as effect on cell metabolic activity at 18.2 uM incubated for overnight by MTS assay; assay type: toxicity, cell-based; conditions: human, hek293, 18.2 µM
Bacillus subtilis [1] = assay: Antibacterial activity against Bacillus subtilis ATCC6051 assessed as inhibition of bacterial growth at 100 uM incubated for 3 hrs by radial diffusion assay; assay type: functional, organism-based
Cell membrane [2] = assay: Induction of membrane permeabilization in Escherichia coli assessed as increase in fluorescence intensity at 2 uM by PI staining based fluorescence spectrophotometric analysis; assay type: subcellular
Cell membrane [3] = assay: Induction of membrane translocation in Escherichia coli spheroplasts assessed as increase in fluorescence intensity using FITC-labeled compound by confocal microscopy; assay type: subcellular
Bacillus subtilis [4] = assay: Antibacterial activity against Bacillus subtilis ATCC6051 assessed as inhibition of bacterial growth incubated for 1 hr followed by TSB addition and measured after 18 to 24 hrs by microbroth dilution assay; assay type: functional; conditions: time 19-25 hrs

SMILES	Activity (Cell membrane [2])	Activity (Cell membrane [3])	MIC (Bacillus subtilis [4]) [µM]	Activity (Escherichia coli)	Activity (HEK293)	Activity (Bacillus subtilis [1])
CC(C)C[C@H](NC(=O)CNC(=O)[C@H](C)NC(=O)[C@H](CCCNC(=N)N)NC(=O)[C@H](CO)NC(=O)[C@H](CO)NC(=O)[C@H](CCCNC(=N)N)NC(=O)[C@@H](N)[C@@H](C)O)C(=O)N[C@@H](CCC(N)=O)C(=O)N[C@@H](Cc1c[nH]c2ccccc12)C(=O)N1CCC[C@H]1C(=O)N[C@H](C(=O)NCC(=O)N[C@@H](CCCNC(=N)N)C(=O)N[C@H](C(=O)N[C@@H](Cc1cnc[nH]1)C(=O)N[C@@H](CCCNC(=N)N)C(=O)N[C@@H](CC(C)C)C(=O)N[C@@H](CC(C)C)C(=O)N[C@@H](CCCNC(=N)N)C(=O)N[C@@H](CCCCN)C(=O)O)C(C)C)C(C)C	Active	Active	18.2 (≈ 45 µg/mL)	Active	Non-Toxic	Active
CC[C@H](C)[C@H](NC(=O)[C@H](CCCNC(=N)N)NC(=O)[C@@H](NC(=O)[C@H](CCCCN)NC(=O)[C@H](CCCCN)NC(=O)[C@H](CC(N)=O)NC(=O)[C@H](CC(=O)O)NC(=O)[C@H](CCCNC(=N)N)NC(=O)[C@H](C)NC(=O)[C@@H]1CCCN1C(=O)[C@H](CCCCN)NC(=O)[C@H](CCCNC(=N)N)NC(=O)[C@H](CC(C)C)NC(=O)[C@H](CC(C)C)NC(=O)[C@H](CCCNC(=N)N)NC(=O)[C@H](Cc1cnc[nH]1)NC(=O)[C@@H](NC(=O)[C@H](CCCNC(=N)N)NC(=O)CNC(=O)[C@@H](NC(=O)[C@@H]1CCCN1C(=O)[C@H](Cc1c[nH]c2ccccc12)NC(=O)[C@H](CCC(N)=O)NC(=O)[C@H](CC(C)C)NC(=O)CNC(=O)[C@H](C)NC(=O)[C@H](CCCNC(=N)N)NC(=O)[C@H](CO)NC(=O)[C@H](CO)NC(=O)[C@H](CCCNC(=N)N)NC(=O)[C@@H](N)[C@@H](C)O)C(C)C)C(C)C)[C@@H](C)O)C(=O)N[C@@H](Cc1c[nH]c2ccccc12)C(=O)N1CCC[C@H]1C(=O)N[C@@H](CCCNC(=N)N)C(=O)N[C@@H](Cc1cnc[nH]1)C(=O)N[C@@H](CC(C)C)C(=O)N[C@@H](CCC(N)=O)C(=O)N[C@@H](CC(C)C)C(=O)N[C@@H](C)C(=O)N[C@H](C(=O)N[C@@H](CCCNC(=N)N)C(=O)N[C@@H](CC(N)=O)C(=O)O)C(C)C	Active	inactive	–	Active	Non-Toxic	Active
CC[C@H](C)[C@H](NC(=O)[C@H](CCCNC(=N)N)NC(=O)[C@@H](NC(=O)[C@H](CCCCN)NC(=O)[C@H](CCCCN)NC(=O)[C@H](CC(N)=O)NC(=O)[C@H](CC(=O)O)NC(=O)[C@H](CCCNC(=N)N)NC(=O)[C@H](C)N)[C@@H](C)O)C(=O)N[C@@H](Cc1c[nH]c2ccccc12)C(=O)N1CCC[C@H]1C(=O)N[C@@H](CCCNC(=N)N)C(=O)N[C@@H](Cc1cnc[nH]1)C(=O)N[C@@H](CC(C)C)C(=O)N[C@@H](CCC(N)=O)C(=O)N[C@@H](CC(C)C)C(=O)N[C@@H](C)C(=O)N[C@H](C(=O)N[C@@H](CCCNC(=N)N)C(=O)N[C@@H](CC(N)=O)C(=O)N1CCC[C@H]1C(=O)N[C@H](C(=O)N[C@@H](CCCNC(=N)N)C(=O)N[C@@H](CO)C(=O)N[C@@H](CO)C(=O)N[C@@H](CCCNC(=N)N)C(=O)N[C@@H](C)C(=O)NCC(=O)N[C@@H](CC(C)C)C(=O)N[C@@H](CCC(N)=O)C(=O)N[C@@H](Cc1c[nH]c2ccccc12)C(=O)N1CCC[C@H]1C(=O)N[C@H](C(=O)NCC(=O)N[C@@H](CCCNC(=N)N)C(=O)N[C@H](C(=O)N[C@@H](Cc1cnc[nH]1)C(=O)N[C@@H](CCCNC(=N)N)C(=O)N[C@@H](CC(C)C)C(=O)N[C@@H](CC(C)C)C(=O)N[C@@H](CCCNC(=N)N)C(=O)N[C@@H](CCCCN)C(=O)O)C(C)C)C(C)C)[C@@H](C)O)C(C)C	Active	Active	–	Active	Non-Toxic	Active

Further lines, with some results ahead:

Activity (Cell membrane [2])	Activity (Cell membrane [3])	MIC (Bacillus subtilis [4]) [µM]	SMILES	Activity (Escherichia coli)	Activity (HEK293)	Activity (Bacillus subtilis [1])
Active	Active	–	CC[C@H](C)[C@H](NC(=O)[C@H](CCCNC(=N)N)NC(=O)[C@@H](NC(=O)[C@H](CCCCN)NC(=O)[C@H](CCCCN)NC(=O)[C@H](CC(N)=O)NC(=O)[C@H](CC(=O)O)NC(=O)[C@H](CCCNC(=N)N)NC(=O)[C@H](C)NC(=O)[C@H](C)NC(=O)[C@H](CCCCN)NC(=O)[C@H](CCCNC(=N)N)NC(=O)[C@H](CC(C)C)NC(=O)[C@H](CC(C)C)NC(=O)[C@H](CCCNC(=N)N)NC(=O)[C@H](Cc1cnc[nH]1)NC(=O)[C@@H](NC(=O)[C@H](CCCNC(=N)N)NC(=O)CNC(=O)[C@@H](NC(=O)[C@@H]1CCCN1C(=O)[C@H](Cc1c[nH]c2ccccc12)NC(=O)[C@H](CCC(N)=O)NC(=O)[C@H](CC(C)C)NC(=O)CNC(=O)[C@H](C)NC(=O)[C@H](CCCNC(=N)N)NC(=O)[C@H](CO)NC(=O)[C@H](CO)NC(=O)[C@H](CCCNC(=N)N)NC(=O)[C@@H](N)[C@@H](C)O)C(C)C)C(C)C)[C@@H](C)O)C(=O)N[C@@H](Cc1c[nH]c2ccccc12)C(=O)N1CCC[C@H]1C(=O)N[C@@H](CCCNC(=N)N)C(=O)N[C@@H](Cc1cnc[nH]1)C(=O)N[C@@H](CC(C)C)C(=O)N[C@@H](CCC(N)=O)C(=O)N[C@@H](CC(C)C)C(=O)N[C@@H](C)C(=O)N[C@H](C(=O)N[C@@H](CCCNC(=N)N)C(=O)N[C@@H](CC(N)=O)C(=O)O)C(C)C	Active	Non-Toxic	Active
Active	Active	–	CC[C@H](C)[C@H](NC(=O)[C@H](CCCNC(=N)N)NC(=O)[C@@H](NC(=O)[C@H](CCCCN)NC(=O)[C@H](CCCCN)NC(=O)[C@H](CC(N)=O)NC(=O)[C@H](CC(=O)O)NC(=O)[C@H](CCCNC(=N)N)NC(=O)[C@H](C)N)[C@@H](C)O)C(=O)N[C@@H](Cc1c[nH]c2ccccc12)C(=O)N1CCC[C@H]1C(=O)N[C@@H](CCCNC(=N)N)C(=O)N[C@@H](Cc1cnc[nH]1)C(=O)N[C@@H](CC(C)C)C(=O)N[C@@H](CCC(N)=O)C(=O)N[C@@H](CC(C)C)C(=O)N[C@@H](C)C(=O)N[C@H](C(=O)N[C@@H](CCCNC(=N)N)C(=O)N[C@@H](CC(N)=O)C(=O)N[C@H](C(=O)N[C@@H](CCCNC(=N)N)C(=O)N[C@@H](CO)C(=O)N[C@@H](CO)C(=O)N[C@@H](CCCNC(=N)N)C(=O)N[C@@H](C)C(=O)NCC(=O)N[C@@H](CC(C)C)C(=O)N[C@@H](CCC(N)=O)C(=O)N[C@@H](Cc1c[nH]c2ccccc12)C(=O)N1CCC[C@H]1C(=O)N[C@H](C(=O)NCC(=O)N[C@@H](CCCNC(=N)N)C(=O)N[C@H](C(=O)N[C@@H](Cc1cnc[nH]1)C(=O)N[C@@H](CCCNC(=N)N)C(=O)N[C@@H](CC(C)C)C(=O)N[C@@H](CC(C)C)C(=O)N[C@@H](CCCNC(=N)N)C(=O)N[C@@H](CCCCN)C(=O)O)C(C)C)C(C)C)[C@@H](C)O)C(C)C	Active	Non-Toxic	Active
Active	Active	–	CC[C@H](C)[C@H](NC(=O)[C@H](CCCNC(=N)N)NC(=O)[C@@H](NC(=O)[C@H](CCCCN)NC(=O)[C@H](CCCCN)NC(=O)[C@H](CC(N)=O)NC(=O)[C@H](CC(=O)O)NC(=O)[C@H](CCCNC(=N)N)NC(=O)[C@H](C)NC(=O)[C@H](CCCCN)NC(=O)[C@H](CCCNC(=N)N)NC(=O)[C@H](CC(C)C)NC(=O)[C@H](CC(C)C)NC(=O)[C@H](CCCNC(=N)N)NC(=O)[C@H](Cc1cnc[nH]1)NC(=O)[C@@H](NC(=O)[C@H](CCCNC(=N)N)NC(=O)CNC(=O)[C@@H](NC(=O)[C@@H]1CCCN1C(=O)[C@H](Cc1c[nH]c2ccccc12)NC(=O)[C@H](CCC(N)=O)NC(=O)[C@H](CC(C)C)NC(=O)CNC(=O)[C@H](C)NC(=O)[C@H](CCCNC(=N)N)NC(=O)[C@H](CO)NC(=O)[C@H](CO)NC(=O)[C@H](CCCNC(=N)N)NC(=O)[C@@H](N)[C@@H](C)O)C(C)C)C(C)C)[C@@H](C)O)C(=O)N[C@@H](Cc1c[nH]c2ccccc12)C(=O)N1CCC[C@H]1C(=O)N[C@@H](CCCNC(=N)N)C(=O)N[C@@H](Cc1cnc[nH]1)C(=O)N[C@@H](CC(C)C)C(=O)N[C@@H](CCC(N)=O)C(=O)N[C@@H](CC(C)C)C(=O)N[C@@H](C)C(=O)N[C@H](C(=O)N[C@@H](CCCNC(=N)N)C(=O)N[C@@H](CC(N)=O)C(=O)O)C(C)C	Active	Non-Toxic	Active
Active	Active	–	CC[C@H](C)[C@H](NC(=O)[C@H](CCCNC(=N)N)NC(=O)[C@@H](NC(=O)[C@H](CCCCN)NC(=O)[C@H](CCCCN)NC(=O)[C@H](CC(N)=O)NC(=O)[C@H](CC(=O)O)NC(=O)[C@H](CCCNC(=N)N)NC(=O)[C@H](C)N)[C@@H](C)O)C(=O)N[C@@H](Cc1c[nH]c2ccccc12)C(=O)N1CCC[C@H]1C(=O)N[C@@H](CCCNC(=N)N)C(=O)N[C@@H](Cc1cnc[nH]1)C(=O)N[C@@H](CC(C)C)C(=O)N[C@@H](CCC(N)=O)C(=O)N[C@@H](CC(C)C)C(=O)N[C@@H](C)C(=O)N[C@H](C(=O)N[C@@H](CCCNC(=N)N)C(=O)N[C@@H](CC(N)=O)C(=O)N[C@@H](C)C(=O)N[C@H](C(=O)N[C@@H](CCCNC(=N)N)C(=O)N[C@@H](CO)C(=O)N[C@@H](CO)C(=O)N[C@@H](CCCNC(=N)N)C(=O)N[C@@H](C)C(=O)NCC(=O)N[C@@H](CC(C)C)C(=O)N[C@@H](CCC(N)=O)C(=O)N[C@@H](Cc1c[nH]c2ccccc12)C(=O)N1CCC[C@H]1C(=O)N[C@H](C(=O)NCC(=O)N[C@@H](CCCNC(=N)N)C(=O)N[C@H](C(=O)N[C@@H](Cc1cnc[nH]1)C(=O)N[C@@H](CCCNC(=N)N)C(=O)N[C@@H](CC(C)C)C(=O)N[C@@H](CC(C)C)C(=O)N[C@@H](CCCNC(=N)N)C(=O)N[C@@H](CCCCN)C(=O)O)C(C)C)C(C)C)[C@@H](C)O)C(C)C	Active	Non-Toxic	Active
